{"source": "patent US20100298141A1", "about": "“SUBSTITUTED PYRIDINE N-OXIDE HERBICIDES” (E. I. DU PONT DE NEMOURS AND COMPANY, priority 2007, published 2010)", "key": {"bermudagrass": {"tested_on": "bermudagrass", "assay": "Test C pre-/postemergence test", "type": "in vivo, Cynodon dactylon", "summary_of_the_method": "(§1)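 Test chemicals were formulated with surfactant in a non-phytotoxic solvent and sprayed both on freshly planted seeds (preemergence) and on 1- to 4-leaf plants of 2–18 cm (postemergence). Flooded-paddy pots received compound directly into 3 cm of standing water, maintained for the test.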"}, "barnyardgrass": {"tested_on": "barnyardgrass", "assay": "Test C flooded paddy test", "type": "in vivo, Echinochloa crus-galli", "settings": "Flood", "summary_of_the_method": "(§2)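 Compound was added to standing water 3 cm above soil, flood maintained, and plants held in a greenhouse before visual scoring against controls at 13 to 15 days.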"}, "velvetleaf": {"tested_on": "velvetleaf", "assay": "Test A pre-/postemergence greenhouse test", "type": "in vivo, Abutilon theophrasti", "settings": "for Velvetleaf plant response rating: 0 to 100 scale", "summary_of_the_method": "(§3)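 Pre: directed soil spray on seeded loam/sand. Post: foliar spray, plants 2–10 cm, 1–2 leaf stage, applied concurrently. Vehicle: non-phytotoxic solvent + surfactant. Greenhouse ~10 d; visual injury rating vs untreated controls.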"}, "morningglory": {"tested_on": "morningglory", "assay": "Test C pre-/postemergence test", "type": "in vivo, Ipomoea coccinea", "summary_of_the_method": "as §1"}, "soybean": {"tested_on": "soybean", "assay": "Test C pre-/postemergence test", "type": "in vivo, Glycine max", "summary_of_the_method": "as §1"}, "giant foxtail [1]": {"tested_on": "giant foxtail", "assay": "Test A pre-/postemergence greenhouse test", "type": "in vivo, Setaria faberi", "settings": "for Foxtail, Giant plant response rating: 0 to 100 scale", "summary_of_the_method": "as §3"}, "johnsongrass": {"tested_on": "johnsongrass", "assay": "Test C pre-/postemergence test", "type": "in vivo, Sorghum halepense", "summary_of_the_method": "as §1"}, "corn": {"tested_on": "corn", "assay": "Test A pre-/postemergence greenhouse test", "type": "in vivo, Zea mays", "settings": "for Corn plant response rating: 0 to 100 scale", "summary_of_the_method": "as §3"}, "catchweed bedstraw": {"tested_on": "catchweed bedstraw", "assay": "Test C pre-/postemergence test", "type": "in vivo, Galium aparine", "summary_of_the_method": "as §1"}, "giant foxtail [2]": {"tested_on": "giant foxtail", "assay": "Test C pre-/postemergence test", "type": "in vivo, Setaria faberii", "summary_of_the_method": "as §1"}, "downy brome": {"tested_on": "downy brome", "assay": "Test C pre-/postemergence test", "type": "in vivo, Bromus tectorum", "summary_of_the_method": "as §1"}, "Surinam grass": {"tested_on": "Surinam grass", "assay": "Test C pre-/postemergence test", "type": "in vivo, Brachiaria decumbens", "settings": "for Surinam Grass plant response rating: preemergence, scale 0 (no effect) to 100 (complete control)", "summary_of_the_method": "as §1"}, "crabgrass": {"tested_on": "crabgrass", "assay": "Test C pre-/postemergence test", "type": "in vivo, Digitaria sanguinalis", "summary_of_the_method": "as §1"}, "wheat": {"tested_on": "wheat", "assay": "Test A pre-/postemergence greenhouse test", "type": "in vivo, Triticum aestivum", "settings": "for Wheat plant response rating: 0 to 100 scale", "summary_of_the_method": "as §3"}, "pigweed": {"tested_on": "pigweed", "assay": "Test C pre-/postemergence test", "type": "in vivo, Amaranthus retroflexus", "summary_of_the_method": "as §1"}, "rice": {"tested_on": "rice", "assay": "Test C flooded paddy test", "type": "in vivo, Oryza sativa", "settings": "Flood", "summary_of_the_method": "as §2"}, "lambsquarters": {"tested_on": "lambsquarters", "assay": "Test C pre-/postemergence test", "type": "in vivo, Chenopodium album", "summary_of_the_method": "as §1"}, "[3]": {"settings": "31 g ai/ha, Preemergence, scale 0 to 100"}, "[4]": {"settings": "62 g ai/ha, preemergence, scale 0 (no effect) to 100 (complete control)"}, "[5]": {"settings": "preemergence, 125 g ai/ha, scale 0 (no effect) to 100 (complete control)"}, "[6]": {"settings": "31 g ai/ha, scale 0 to 100 (0 no effect, 100 complete control)"}, "[7]": {"settings": "62 g ai/ha, scale 0 to 100, 0 no effect, 100 complete control, 13 to 15 days"}, "[8]": {"settings": "125 g ai/ha, scale 0 to 100, 0 no effect, 100 complete control, 13 to 15 days"}, "[9]": {"settings": "250 g ai/ha, scale 0 to 100 (0 no effect, 100 complete control)"}, "[10]": {"settings": "Postemergence, 125 g ai/ha, 0 is no effect, 100 is complete control"}, "[11]": {"settings": "Postemergence, 500 g ai/ha, 0 is no effect, 100 is complete control"}, "[12]": {"settings": "Preemergence, 125 g ai/ha, 0 no effect, 100 complete control"}, "[13]": {"settings": "Preemergence, 500 g ai/ha, 0 to 100 scale where 0 is no effect and 100 is complete control"}}}
{"smiles": "Cc1cc[n+]([O-])c(S(=O)(=O)C(C)c2c(C(F)(F)F)nn(C)c2OC(F)F)c1", "note": "(stereo not drawn) [Compound 11]", "values": [{"measurement": "Bermudagrass plant response rating", "setting": "bermudagrass; [3]", "value": 100}, {"measurement": "Bermudagrass plant response rating", "setting": "bermudagrass; [4]", "value": 100}, {"measurement": "Plant response rating (0 to 100), Bermudagrass", "setting": "bermudagrass; Preemergence, 250 g ai/ha", "value": 100}, {"measurement": "Bermudagrass plant response rating", "setting": "bermudagrass; [5]", "value": 100}, {"measurement": "Plant response rating, Barnyardgrass", "setting": "barnyardgrass; [6]", "value": 0}, {"measurement": "Plant response rating, Barnyardgrass", "setting": "barnyardgrass; [7]", "value": 70}, {"measurement": "Plant response rating, Barnyardgrass", "setting": "barnyardgrass; [8]", "value": 75}, {"measurement": "Plant response rating, Barnyardgrass", "setting": "barnyardgrass; [9]", "value": 85}, {"measurement": "Velvetleaf plant response rating", "setting": "velvetleaf; [10]", "value": 40}, {"measurement": "Velvetleaf plant response rating", "setting": "velvetleaf; [11]", "value": 60}, {"measurement": "Velvetleaf plant response rating", "setting": "velvetleaf; [12]", "value": 80}, {"measurement": "Plant response rating, Velvetleaf", "setting": "velvetleaf; [13]", "value": 90}, {"measurement": "Morningglory plant response rating", "setting": "morningglory; [3]", "value": 98}, {"measurement": "Morningglory plant response rating", "setting": "morningglory; [4]", "value": 100}, {"measurement": "Plant response rating (0 to 100), Morningglory", "setting": "morningglory; Preemergence, 250 g ai/ha", "value": 100}, {"measurement": "Morningglory plant response rating", "setting": "morningglory; [5]", "value": 100}, {"measurement": "Soybean plant response rating", "setting": "soybean; [3]", "value": 0}, {"measurement": "Soybean plant response rating", "setting": "soybean; [4]", "value": 0}, {"measurement": "Plant response rating (0 to 100), Soybean", "setting": "soybean; Preemergence, 250 g ai/ha", "value": 100}, {"measurement": "Soybean plant response rating", "setting": "soybean; [5]", "value": 20}, {"measurement": "Foxtail, Giant plant response rating", "setting": "giant foxtail [1]; [10]", "value": 70}, {"measurement": "Foxtail, Giant plant response rating", "setting": "giant foxtail [1]; [11]", "value": 80}, {"measurement": "Foxtail, Giant plant response rating", "setting": "giant foxtail [1]; [12]", "value": 100}, {"measurement": "Plant response rating, Foxtail, Giant", "setting": "giant foxtail [1]; [13]", "value": 100}, {"measurement": "Johnsongrass plant response rating", "setting": "johnsongrass; [3]", "value": 100}, {"measurement": "Johnsongrass plant response rating", "setting": "johnsongrass; [4]", "value": 100}, {"measurement": "Plant response rating (0 to 100), Johnsongrass", "setting": "johnsongrass; Preemergence, 250 g ai/ha", "value": 100}, {"measurement": "Johnsongrass plant response rating", "setting": "johnsongrass; [5]", "value": 100}, {"measurement": "Corn plant response rating", "setting": "corn; [10]", "value": 30}, {"measurement": "Corn plant response rating", "setting": "corn; [11]", "value": 50}, {"measurement": "Corn plant response rating", "setting": "corn; [12]", "value": 30}, {"measurement": "Plant response rating, Corn", "setting": "corn; [13]", "value": 60}, {"measurement": "Galium plant response rating", "setting": "catchweed bedstraw; [3]", "value": 50}, {"measurement": "Galium plant response rating", "setting": "catchweed bedstraw; [4]", "value": 100}, {"measurement": "Plant response rating (0 to 100), Galium", "setting": "catchweed bedstraw; Preemergence, 250 g ai/ha", "value": 100}, {"measurement": "Galium plant response rating", "setting": "catchweed bedstraw; [5]", "value": 100}, {"measurement": "Foxtail, Giant plant response rating", "setting": "giant foxtail [2]; [3]", "value": 80}, {"measurement": "Foxtail, Giant plant response rating", "setting": "giant foxtail [2]; [4]", "value": 98}, {"measurement": "Plant response rating (0 to 100), Foxtail, Giant", "setting": "giant foxtail [2]; Preemergence, 250 g ai/ha", "value": 100}, {"measurement": "Bromegrass, Downy plant response rating", "setting": "downy brome; [3]", "value": 0}, {"measurement": "Bromegrass, Downy plant response rating", "setting": "downy brome; [4]", "value": 10}, {"measurement": "Plant response rating (0 to 100), Bromegrass, Downy", "setting": "downy brome; Preemergence, 250 g ai/ha", "value": 60}, {"measurement": "Bromegrass, Downy plant response rating", "setting": "downy brome; [5]", "value": 50}, {"measurement": "Surinam Grass plant response rating", "setting": "Surinam grass; 62 g ai/ha", "value": 80}, {"measurement": "Plant response rating (0 to 100), Surinam Grass", "setting": "Surinam grass; Preemergence, 250 g ai/ha", "value": 100}, {"measurement": "Surinam Grass plant response rating", "setting": "Surinam grass; 125 g ai/ha", "value": 95}, {"measurement": "Crabgrass, Large plant response rating", "setting": "crabgrass; [3]", "value": 100}, {"measurement": "Crabgrass, Large plant response rating", "setting": "crabgrass; [4]", "value": 100}, {"measurement": "Plant response rating (0 to 100), Crabgrass, Large", "setting": "crabgrass; Preemergence, 250 g ai/ha", "value": 100}, {"measurement": "Crabgrass, Large plant response rating", "setting": "crabgrass; [5]", "value": 100}, {"measurement": "Wheat plant response rating", "setting": "wheat; [10]", "value": 50}, {"measurement": "Wheat plant response rating", "setting": "wheat; [11]", "value": 60}, {"measurement": "Wheat plant response rating", "setting": "wheat; [12]", "value": 50}, {"measurement": "Plant response rating, Wheat", "setting": "wheat; [13]", "value": 80}, {"measurement": "Pigweed plant response rating", "setting": "pigweed; [3]", "value": 100}, {"measurement": "Pigweed plant response rating", "setting": "pigweed; [4]", "value": 100}, {"measurement": "Plant response rating (0 to 100), Pigweed", "setting": "pigweed; Preemergence, 250 g ai/ha", "value": 100}, {"measurement": "Pigweed plant response rating", "setting": "pigweed; [5]", "value": 100}, {"measurement": "Plant response rating, Rice", "setting": "rice; [6]", "value": 0}, {"measurement": "Plant response rating, Rice", "setting": "rice; [7]", "value": 70}, {"measurement": "Plant response rating, Rice", "setting": "rice; [8]", "value": 80}, {"measurement": "Plant response rating, Rice", "setting": "rice; [9]", "value": 80}, {"measurement": "Lambsquarters plant response rating", "setting": "lambsquarters; [3]", "value": 100}, {"measurement": "Lambsquarters plant response rating", "setting": "lambsquarters; [4]", "value": 100}, {"measurement": "Plant response rating (0 to 100), Lambsquarters", "setting": "lambsquarters; Preemergence, 250 g ai/ha", "value": 100}, {"measurement": "Lambsquarters plant response rating", "setting": "lambsquarters; [5]", "value": 100}]}
